Laboratory results: US8623661B2, “Iron chelating agent, method for producing same, method for determining amount of iron ions and method for trapping iron ions” (National University Corporation Asahikawa Medical College, priority 2008, dated 2014)

Assays:
[1] = system: iron nitrilotriacetate complex (Fe-NTA); assay: Evaluation C: chelating ability in MOPS/acetonitrile solvent, Fe-NTA solution; assay type: binding
Method: (§1) Evaluation was carried out by the following evaluation method C as to whether or not the iron chelating agent according to Examples 1 to 3 had chelating ability with iron in 3-morpholinopropanesulfonic acid (C7H15NO4S;MOPS) and acetonitrile solution as solvents used in high performance liquid chromatography (HPLC).
(§2) 2.09 g of morpholinopropanesulfonic acid (C7H15NO4S; FW=209.26, Code 341-01801, Lot PX013, manufactured by Dojindo/Wako Corporation) was added to a 100 mL Erlenmeyer flask, 80 mL of ultrapure water (pure water produced by an ultrapure water production system manufactured by Millipore Corporation (Milli-Q); “Milli-Q water”) was added thereto and dissolved [pH 4.15 (24.4° C.)]. To this solution, 1N sodium hydroxide solution (1 mol/1 sodium hydroxide solution, Code 192-02175, Lot SEP7274, manufactured by Wako Pure Chemicals Industries) was added in 100 μl portions, the pH was adjusted to 7.0 and further Milli-Q water was made up to 100 mL in a measuring cylinder, whereby 100 mL of MOPS solution (pH 6.99) was prepared.
(§3) An iron chelating agent solution having an iron chelating agent concentration of 50 mM was prepared with respect to the iron chelating agent according to Examples 1 to 3, in the same manner as the preparation method of the iron chelating solution in evaluation A of the iron chelating agent.
(§4) Further, 100 mM of MOPS solution (pH6.99) prepared by the preparation method of the MOPS solution was used.
(§5) Furthermore, a stock solution of acetonitrile (C2H3N, FW=41.05, Code 347-06641, Lot WPI96, manufactured by Dojindo/Wako corporation) was used.
(§6) 13.8 mL of Milli-Q water was taken in a 50 mL conical tube, 1.2 mL of each of the iron chelating agent solutions (Fe-Ser•Na (50 mM), Fe-His•Na (50 mM), Fe-Glu•Na (50 mM)) according to the iron chelating agents of Examples 1 to 3 was added, 1.0 mL of 100 mM MOPS solution was added thereto, and a further 4.0 mL of acetonitrile solution was added to produce an iron chelating solution using MOPS. The iron chelating agent solutions using MOPS and iron chelating agent according to Examples 1 to 3 were defined respectively as Fe-Ser•Na (MOPS solution)” (iron chelating agent according to
(§7) Example 1), “Fe-His•Na (MOPS solution)” (iron chelating agent according to Example 2), and “Fe-Glu•Na(MOPS solution)” (iron chelating agent according to Example 3).
Further, iron nitrilotriacetate complex solution (“Fe-NTA solution (20 mM)”) having a concentration of iron ions of 20 mM and iron nitrilotriacetate complex solution (“Fe-NTA solution (2 mM)”) having a concentration of iron ions of 2 mM were prepared, in the same manner as the preparation method of iron nitrilotriacetate complex solution in evaluation B of the iron chelating agent.
Further, Fe-NTA solution (20 mM) was added to and mixed with each of the iron chelating agent solutions [Fe-Ser•Na (MOPS solution), Fe-His•Na (MOPS solution), Fe-Glu•Na (MOPS solution)] using MOPS. […] Further, Fe-NTA solution (2 mM) was added and mixed thereto as described above.

[2] = system: iron citrate complex ammonium salt (FAC); assay: Evaluation C: chelating ability in MOPS/acetonitrile solvent, FAC solution; assay type: binding
Method: as §1, §2, §3, §4, §5, §6, §7
An iron citrate complex ammonium salt solution (FAC solution (20 mM)) having a concentration of iron ions of 20 mM and an iron citrate complex ammonium salt solution (FAC solution (2 mM)) having a concentration of iron ions of 2 mM were prepared, in the same manner as the preparation method of the iron citrate complex ammonium solution in evaluation A of the iron chelating agent.
FAC solution (20 mM) was added to and mixed with each of the iron chelating agent solutions [Fe-Ser•Na (MOPS solution), Fe-His•Na (MOPS solution), Fe-Glu•Na (MOPS solution)] using MOPS.

Measured: colour of the solution after mixing

O=C(O)C(CO)NCc1ccccc1O (stereo not shown) [Example 1, o-[(1-carboxy-2-hydroxyethyl)-amino-methyl]-phenol]
dark brown-colored: [1]; Fe-NTA solution (2 mM) added to chelating agent MOPS solution (MOPS, acetonitrile) | [1]; Fe-NTA solution (20 mM) added to chelating agent MOPS solution (MOPS, acetonitrile) | [2]; FAC solution (2 mM) added to chelating agent MOPS solution (MOPS, acetonitrile) | [2]; FAC solution (20 mM) added to chelating agent MOPS solution (MOPS, acetonitrile)
